One block for each molecule: values may come before it. The source made the active and inactive calls. No cut-off for these calls is given here.
Tests used:
[1] = system: Hepatitis B virus; test: Antiviral activity against HBV infected in human HePAD38 cells assessed as inhibition of HBV capsid assembly by measuring secretion of particles containing HBV DNA at 5 uM incubated for 7 days by Southern blot analysis; assay type: functional, organism-based; conditions: time 7.0 day
[2] = biological target: Core antigen (Hepatitis B virus, UniProt Q03732); test: Inhibition of Hepatitis B virus core protein expressed in HBC cells derived from HEK293T cells assessed as reduction in HBcAg level incubated for 6 hrs by Nano-glo luciferase assay; assay type: cell-based; conditions: read-out: IC50
Chain of Core antigen (Q03732 whole entry): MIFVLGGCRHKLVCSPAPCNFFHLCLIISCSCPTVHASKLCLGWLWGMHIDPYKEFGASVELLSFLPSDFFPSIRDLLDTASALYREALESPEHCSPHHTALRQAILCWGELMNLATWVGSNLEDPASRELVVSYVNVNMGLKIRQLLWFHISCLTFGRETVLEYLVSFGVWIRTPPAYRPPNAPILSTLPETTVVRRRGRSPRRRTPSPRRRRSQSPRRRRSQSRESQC

[3] = system: Hepatitis B virus; test: Antiviral activity against HBV infected in human HePAD38 cells assessed as decrease in HBV DNA level at 2.5 to 20 uM by q-PCR analysis; assay type: functional, organism-based; conditions: dose 2.5-20 µM
[4] = system: HepG2; test: Cytotoxicity against human HepG2 cells measured after 3 days by resazurin staining based analysis; assay type: functional; conditions: HepG2, 72 h, time 3 day
[5] = system: Hepatitis B virus core protein; test: Selectivity index, ratio of CC50 for human HepG2 cells to IC50 for Hepatitis B virus core protein expressed in HEK293T cells; assay type: toxicity, cell-based; conditions: read-out: Ratio CC50/IC50
[6] = system: Hepatitis B virus; test: Antiviral activity against HBV infected in human HePAD38 cells assessed as reduction in intracellular core HBV DNA level media replaced for every 2 to 3 days incubated for 7 days by Western blot analysis; assay type: functional, organism-based
[7] = Toxicity in BALB/c mouse at 100 mg/kg, po administered twice daily for 14 days; assay type: organism-based; conditions: in vivo, 336 h, time 14 day
[8] = system: Hepatitis B virus; test: Antiviral activity against HBV infected in BALB/c mouse hydrodynamic injection model hydrodynamically injected with replication-competent HBV DNA plasmid assessed as reduction in HBV DNA copy numbers in plasma at 100 mg/kg, po administered twice daily for 14 days; assay type: functional, organism-based; conditions: time 14.0 day
[9] = system: Hepatitis B virus; test: Antiviral activity against HBV infected in BALB/c mouse hydrodynamic injection model hydrodynamically injected with replication-competent HBV DNA plasmid assessed as decrease in HBsAG level in mouse serum at 100 mg/kg, po administered twice daily for 7 days by ELISA method; assay type: functional, organism-based; conditions: time 7.0 day
[10] = system: Hepatitis B virus; test: Antiviral activity against HBV infected in human HePAD38 cells assessed as reduction HBV capsid level at 5 uM media replaced for every 2 to 3 days incubated for 7 days by Western blot analysis; assay type: functional, organism-based; conditions: time 7.0 day
[11] = system: Hepatitis B virus; test: Antiviral activity against HBV infected in human HepAD38 cells assessed as inhibition of viral replication incubated for 6 days by qPCR analysis; assay type: functional, organism-based; conditions: HePAD38, 144 h
[12] = system: Hepatitis B virus; test: Antiviral activity against HBV infected in human HepAD38 cells assessed as inhibition of viral replication by Southern blot analysis; assay type: functional, organism-based

Structure (SMILES): COc1ccc(Sc2nc3ccccc3n2CCO)cc1
Activity [1]: Active
IC50 [2]: 510 nM
Activity [3]: Active
CC50 [4]: 84300 nM
selectivity ratio [5]: 165
EC50 [6]: 2240 nM
Activity [7]: Non-Toxic
Activity [8]: Active
Activity [9]: Active
Activity [10]: Active

EC50 [11]: 200 nM
Structure (SMILES): COc1ccccc1/C(Br)=C(/NC(=O)c1ccc([N+](=O)[O-])cc1)C(=O)N1CCCCC1

EC50 [12]: 62.2 nM
Structure (SMILES): CCOC(=O)C1=C(CN2CCOCC2)NC(c2nccs2)=N[C@H]1c1ccc(F)cc1Br

From ChEMBL document CHEMBL5512658, “Development of benzimidazole-based compounds as novel capsid assembly modulators for the treatment of HBV infection” (Eur J Med Chem, 2024)
